Patent US10100285B2, “Ex vivo proliferation of epithelial cells” (PROPAGENIX INC., priority 2015, dated 2018)
“Also recorded” adds a separate entry of the source. Structures can show the parent of a compound that is named as a salt. Where two headings read alike, the source gives them in different places.

Legend:
[1] = system: late passage prostate epithelial cells; assay type: cell-based; conditions: for increase of total cell number after 5 days: KSFM plus individual compound alone at 5 μM; for increase of total cell number after 5 days / cell proliferation when used together with A83-01: 1 μM, 0.2 μM; for cell proliferation when used together with A83-01: KSFM supplemented with A83-01 plus compound at 5 μM, 5 days
From the text: As described above, these include Rho kinase inhibitors (i.e., Rho-associated protein kinase inhibitors) such as Y-27632, SR 3677, GSK 429286 and Thiazovivin; PAK1 inhibitor IPA-3; and myosin II inhibitor (i.e., non-muscle myosin II (NM II) inhibitor) Blebbistatin.

[2] = system: human telomerase reverse transcriptase (hTERT) expression in bronchial epithelial cells; assay: hTERT expression by quantitative real-time PCR in bronchial epithelial cells; assay type: cell-based; conditions: KSFM
Description: (§1) Total RNA was prepared using TRIzol® Plus RNA Purification Kit (Life Technologies, 12183-555) and PureLink® RNA Mini Kit (Life Technologies, 12183018A), following the manufacturer's instructions. One hundred nanogram total RNA was used for the determination of human telomerase reverse transcriptase (hTERT) expression using the TaqMan® RNA-to-CT™ 1-Step Kit (Life Technologies, 4392938), following the protocol provided by the supplier. hTERT primers and Taqman probe used were as follows: forward primer, 5′-[…]-3′ (SEQ ID NO:1), reverse primer, 5′-[…]-3′ (SEQ ID NO:2) and Taqman probe, 5′-[…]-3′ (SEQ ID NO:3).
(§2) In this example, hTERT expression in epithelial cells was assessed in the presence of an ALK5 inhibitor, a Rho kinase inhibitor (i.e., a Rho-associated protein kinase inhibitor), or both. Expression of hTERT gene was examined by quantitative real-time PCR in bronchial epithelial cells and prostate epithelial cells. The cells were treated with an ALK5 inhibitor, A83-01, or a Rho kinase inhibitor (i.e., a Rho-associated protein kinase inhibitor), Y-27632, or both inhibitors, at different passages in KSFM.

[3] = system: prostate epithelial cells; assay: Growth (population doublings) of prostate epithelial cells; assay type: cell-based, human; conditions: KSFM; for total population doublings: serial culture (FIG. 14)
Description: (§3) Epithelial cells (prostate epithelial cells and bronchial epithelial cells) were plated at 3,000-10,000 viable cells/cm^2 in tissue culture vessels, using culture medium as indicated in Examples 2 to 5 and FIGS. 1 to 17, and incubated at 37° C. with 5% CO2. The medium was changed every 2 or 3 days. Cells were sub-cultured using standard trypsinization method when they were about 70-90% confluent. Total cell number was determined using the Countess II Automated Cell Counter (Life Technologies, AMQAX1000) following manufacturer's instructions.
(§4) A formula used for the calculation of population doublings (PD) is presented in Equation A: n=3.32*(log Y−log I)+X Equation A where n=the final PD number at end of a given subculture, Y=the cell yield at the time of harvesting, I=the cell number used as inoculum to begin that subculture, and X=the doubling level of the inoculum used to initiate the subculture being quantitated.
(§5) Prostate and bronchial epithelial cells were grown in KSFM in the presence of Rho kinase inhibitor (i.e., Rho-associated protein kinase inhibitor) Y-27632.
To examine the effects of additional in vitro and/or ex vivo growth conditions, prostate epithelial cells were grown in KSFM or PrEGM in the presence of media alone, ALK5 inhibitor A83-01, Rho kinase inhibitor (i.e., Rho-associated protein kinase inhibitor) Y-27632, or both (with or without collagen).

[4] = system: bronchial epithelial cells; assay: Growth (population doublings) of bronchial epithelial cells; assay type: cell-based, human; conditions: KSFM; for total population doublings: serial culture (FIG. 15)
Description: as §3, §4, §5
Similar to the experiment above, bronchial epithelial cells were grown in KSFM in the presence of media alone, ALK5 inhibitor A83-01, Rho kinase inhibitor (i.e., Rho-associated protein kinase inhibitor) Y-27632, or both (with or without collagen).

[5] = system: prostate epithelial cells; assay: Plating efficiency of prostate epithelial cells in KSFM; assay type: cell-based, human
From the text: (§6) In this example, epithelial cell plating efficiency, i.e., number of cells that efficiently attach to the cell culture surfaces, continue to divide and grow into colonies, was examined under various conditions.
(§7) However, those few cells that did attach continued to proliferate.
Many prostate epithelial cells attached to regular tissue culture surface in the presence of both A83-01 and Y-27632 at day 2 after plating.

[6] = system: bronchial epithelial cells; assay: Plating efficiency of bronchial epithelial cells in KSFM; assay type: cell-based, human
From the text: as §6, §7
Many bronchial epithelial cells attached to regular tissue culture surface in the presence of both A83-01 and Y-27632 at day 2 after plating.

[7] = system: human telomerase reverse transcriptase (hTERT) expression in prostate epithelial cells; assay: hTERT expression by quantitative real-time PCR in prostate epithelial cells; assay type: cell-based; conditions: KSFM
Description: as §1, §2
As shown in FIG. 6A and FIG. 6B, prostate epithelial cells at early passage (p2) expressed low level of hTERT, which quickly diminished at passage 3 and became non-detectable by passage 5.

[8] = system: human foreskin keratinocytes (HFK) and human bronchial epithelial cells (HBEC); assay: Cell growth with increasing concentrations of isoproterenol; assay type: cell-based; conditions: added to KSFM plus 1 μM A83-01 and 5 μM Y-27632, six days
Description: In a further investigation, epithelial cell growth was assessed in the presence of a beta-adrenergic agonist (i.e., a beta-adrenergic receptor agonist). Human foreskin keratinocytes (HFK) and human bronchial epithelial cells (HBEC) were cultured in KSFM plus 1 μM A83-01 and 5 μM Y-27632, supplemented with increasing concentrations of isoproterenol (a beta-adrenergic receptor agonist that increases cytosolic cAMP levels). Cell numbers were counted after six days to calculate cell growth relative to control.

[9] = regular (uncoated) tissue culture surface
[10] = used alone, continuous use (FIG. 13)
[11] = added together with A83-01, regular tissue culture surface

Cc1ccc2c(c1)C(=O)C1(O)CCN(c3ccccc3)C1=N2 (racemic) [Blebbistatin, (±)-1,2,3,3a-Tetrahydro-3a-hydroxy-6-methyl-1-phenyl-4H-pyrrolo[2,3-b]quinolin-4-one]
increase of total cell number after 5 days [1]: did not increase proliferation | cell proliferation when used together with A83-01 [1]: synergistically increased

Cc1cccc(-c2nn(C(=S)Nc3ccccc3)cc2-c2ccnc3ccccc23)n1 [A83-01, 3-(6-Methyl-2-pyridinyl)-N-phenyl-4-(4-quinolinyl)-1H-pyrazole-1-carbothioamide]
hTERT expression ([2]; early passage (p3)): robustly induced hTERT expression | hTERT expression ([2]; late passage (p6)): sustained measurable hTERT expression | increase of total cell number after 5 days [1]: pronounced increase of total cell number; also recorded: significantly increased | total population doublings [3]: also increased the total population doublings | total population doublings [4]: also increased the total population doublings | plating efficiency [5, 9]: interfered with prostate epithelial cell plating efficiency | plating efficiency [6, 9]: interfered with bronchial epithelial cell plating efficiency | hTERT expression ([7]; early passage (p2)): quickly induced hTERT expression | hTERT expression ([7]; late passage (p5)): sustained measurable hTERT expression

CC1=C(C(=O)Nc2cc3cn[nH]c3cc2F)C(c2ccc(C(F)(F)F)cc2)CC(=O)N1 (stereo not shown) [GSK 429286, 4-[4-(Trifluoromethyl)phenyl]-N-(6-Fluoro-1H-indazol-5-yl)-2-methyl-6-oxo-1,4,5,6-tetrahydro-3-pyridinecarboxamide]
increase of total cell number after 5 days [1]: slight increase of total cell numbers | cell proliferation when used together with A83-01 [1]: synergistic effect

O=C(NC1CCOCC1)c1ccc(-c2cc(-c3c[nH]nc3-c3ccccn3)ccn2)cc1 [GW 788388, 4-[4-[3-(2-Pyridinyl)-1H-pyrazol-4-yl]-2-pyridinyl]-N-(tetrahydro-2H-pyran-4-yl)-benzamide]
increase of total cell number after 5 days [1]: pronounced increase of total cell number | cell proliferation when used together with A83-01 [1]: little extra increase

Oc1ccc2ccccc2c1SSc1c(O)ccc2ccccc12 [IPA-3, 1,1′-Dithiodi-2-naphthol]
increase of total cell number after 5 days [1]: did not increase proliferation | cell proliferation when used together with A83-01 [1]: synergistically increased | cell death ([1]; highest concentration tested (5 μM)): nearly total cell death

Cc1cccc(-c2n[nH]cc2-c2ccc3ncccc3n2)n1 [RepSox, 2-(3-(6-Methylpyridine-2-yl)-1H-pyrazol-4-yl)-1,5-naphthyridine]
increase of total cell number after 5 days [1]: pronounced increase of total cell number | cell proliferation when used together with A83-01 [1]: little extra increase

NC(=O)c1ccc(-c2nc(-c3ccc4c(c3)OCO4)c(-c3ccccn3)[nH]2)cc1 [SB 431542, 4-[4-(1,3-benzodioxol-5-yl)-5-(2-pyridinyl)-1H-imidazol-2-yl]benzamide]
increase of total cell number after 5 days [1]: pronounced increase of total cell number | cell proliferation when used together with A83-01 [1]: little extra increase

CN(C)CCOc1cc(-c2cn[nH]c2)ccc1NC(=O)C1COc2ccccc2O1 (stereo not shown) [SR 3677, N-[2-[2-(Dimethylamino)ethoxy]-4-(1H-pyrazol-4-yl)phenyl-2,3-dihydro-1,4-benzodioxin-2-carboxamidedi hydrochloride]
increase of total cell number after 5 days [1]: slight increase of total cell numbers | cell proliferation when used together with A83-01 [1]: synergistic effect

O=C(NCc1ccccc1)c1csc(Nc2ccncn2)n1 [Thiazovivin, N-Benzyl-[2-(pyrimidin-4-yl)amino]thiazole-4-carboxamide]
increase of total cell number after 5 days [1]: slight increase of total cell numbers | cell proliferation when used together with A83-01 [1]: synergistic effect

C[C@@H](N)[C@H]1CC[C@H](C(=O)Nc2ccncc2)CC1.Cl.Cl [Y-27632, (R)-(+)-trans-4-(1-Aminoethyl)-N-(4-Pyridyl)cyclohexanecarboxamide dihydrochloride]
hTERT expression ([2]; early passage (p3)): slightly induced hTERT expression | hTERT expression ([2]; late passage (p6)): non-detectable | increase of total cell number after 5 days ([1]; dihydrochloride): slight increase of total cell numbers; also recorded: slight increase of cell proliferation | cell proliferation when used together with A83-01 [1]: synergistically increased | population doubling reached shortly before senescence [3]: > 20 PD | total population doublings [3]: slightly increased the total population doublings | proliferation at late passage [3, 10]: did not promote the proliferation | total population doublings [4]: slightly increased the total population doublings | proliferation at late passage [4, 10]: did not promote the proliferation | plating efficiency [5, 11]: ameliorated the low plating efficiency | plating efficiency [6, 11]: ameliorated the low plating efficiency | hTERT expression ([7]; early passage (p2)): induced hTERT expression | hTERT expression ([7]; late passage (p5)): non-detectable

CC(C)NCC(O)c1ccc(O)c(O)c1 (stereo not shown) [isoproterenol]
cell growth relative to control [8]: further increased epithelial cells growth
